Measured values reported in the OligoGym collection.
HELM strings list units from the 5' end as sugar, base in round brackets, then linkage (d deoxyribose, r ribose, m 2'-O-methyl, p phosphodiester). Strings are as the collection lists them; they lack the last nucleoside at the 3' end of the tested compound. [moe] = 2'-O-(2-methoxyethyl) (MOE); [sp] = phosphorothioate linkage; [m5C] = 5-methylcytosine

Molecular target: SCN2A
Test: mouse, dose not given
Details: ASO

Q: Which 3 h FOB score does the source give for “RNA1{[moe](G)[sp].[moe]([m5C])p.[moe](A)p.[moe](T)p.[moe](G)p.[moe](T)p.d(A)[sp].d(A)[sp].d([m5C])[sp].d([m5C])[sp].d(T)[sp].d(T)[sp].d(T)[sp].d(A)[sp].d(T)[sp].d(A)[sp].[moe]([m5C])p.[moe](A)[sp].[moe](T)}$$$$ (last 3' nucleoside missing)” here?
A: The 3 h FOB score was 0 score 0-7.

Q: With “RNA1{[moe](A)[sp].[moe](G)p.[moe]([m5C])p.[moe](A)p.d(T)[sp].d(A)[sp].d(T)[sp].d(T)[sp].d([m5C])[sp].d(T)[sp].d(A)[sp].d(A)[sp].d([m5C])[sp].d(A)[sp].[moe](T)p.[moe](G)p.[moe](G)p.[moe](T)[sp].[moe]([m5C])}$$$$ (last 3' nucleoside missing)” as the substance, how does the 3 h FOB score read?
A: The 3 h FOB score was 0 score 0-7.

Q: Which 3 h FOB score does the source give for “RNA1{[moe](T)[sp].[moe](G)p.[moe]([m5C])p.[moe](A)p.[moe](T)p.d(G)[sp].d(T)[sp].d(A)[sp].d(A)[sp].d([m5C])[sp].d([m5C])[sp].d(T)[sp].d(T)[sp].d(T)[sp].d(A)[sp].[moe](T)p.[moe](A)p.[moe]([m5C])[sp].[moe](A)}$$$$ (last 3' nucleoside missing)” here?
A: The 3 h FOB score was 1 score 0-7.

Q: How did the 3 h FOB score turn out when “RNA1{[moe](T)[sp].[moe]([m5C])p.[moe](A)p.[moe](T)p.[moe](G)p.d([m5C])[sp].d(A)[sp].d(T)[sp].d(A)[sp].d(A)[sp].d(T)[sp].d([m5C])[sp].d([m5C])[sp].d([m5C])[sp].d(A)[sp].[moe](T)p.[moe](T)p.[moe](A)[sp].[moe](T)}$$$$ (last 3' nucleoside missing)” was run?
A: The 3 h FOB score was 0 score 0-7.

Q: For “RNA1{[moe](G)[sp].[moe](A)p.[moe]([m5C])p.[moe]([m5C])p.d(A)[sp].d([m5C])[sp].d(G)[sp].d([m5C])[sp].d(T)[sp].d(T)[sp].d(A)[sp].d([m5C])[sp].d(A)[sp].d(T)[sp].[moe]([m5C])p.[moe](A)p.[moe](A)p.[moe](A)[sp].[moe]([m5C])}$$$$ (last 3' nucleoside missing)”, which 3 h FOB score is on record?
A: Its 3 h FOB score is 4 score 0-7.

Q: For “RNA1{[moe]([m5C])[sp].[moe](A)p.[moe](T)p.[moe](G)p.[moe](T)p.d(A)[sp].d(A)[sp].d([m5C])[sp].d([m5C])[sp].d(T)[sp].d(T)[sp].d(T)[sp].d(A)[sp].d(T)[sp].d(A)[sp].[moe]([m5C])p.[moe](A)p.[moe](T)[sp].[moe](T)}$$$$ (last 3' nucleoside missing)”, which 3 h FOB score is on record?
A: Its 3 h FOB score is 0 score 0-7.

Q: How did the 3 h FOB score turn out when “RNA1{[moe]([m5C])[sp].[moe](A)p.[moe](T)p.[moe](A)p.d(T)[sp].d(T)[sp].d(T)[sp].d(T)[sp].d(T)[sp].d([m5C])[sp].d(T)[sp].d(A)[sp].d([m5C])[sp].d(A)[sp].[moe]([m5C])p.[moe](T)p.[moe](G)p.[moe]([m5C])[sp].[moe](T)}$$$$ (last 3' nucleoside missing)” was run?
A: The 3 h FOB score was 2 score 0-7.

Q: For “RNA1{[moe](A)[sp].[moe](T)p.[moe]([m5C])p.[moe](A)p.d([m5C])[sp].d(T)[sp].d(T)[sp].d(T)[sp].d([m5C])[sp].d(A)[sp].d(T)[sp].d([m5C])[sp].d([m5C])[sp].d(A)[sp].[moe]([m5C])p.[moe](G)p.[moe](A)p.[moe]([m5C])[sp].[moe](A)}$$$$ (last 3' nucleoside missing)”, which 3 h FOB score is on record?
A: The 3 h FOB score was 1 score 0-7.

Q: “RNA1{[moe]([m5C])[sp].[moe]([m5C])p.[moe](A)p.[moe](G)p.[moe](T)p.d(T)[sp].d(T)[sp].d(T)[sp].d(T)[sp].d(T)[sp].d([m5C])[sp].d(A)[sp].d(T)[sp].d(T)[sp].d(G)[sp].[moe]([m5C])p.[moe](A)p.[moe](T)[sp].[moe]([m5C])}$$$$ (last 3' nucleoside missing)” was tested. Which 3 h FOB score did it give?
A: Its 3 h FOB score is 1.33 score 0-7.

Q: Which 3 h FOB score does the source give for “RNA1{[moe](G)[sp].[moe](A)p.[moe]([m5C])p.[moe](A)p.d(T)[sp].d(A)[sp].d(T)[sp].d(T)[sp].d(T)[sp].d(T)[sp].d(T)[sp].d([m5C])[sp].d(T)[sp].d(A)[sp].[moe]([m5C])p.[moe](A)p.[moe]([m5C])p.[moe](T)[sp].[moe](G)}$$$$ (last 3' nucleoside missing)” here?
A: Its 3 h FOB score is 1 score 0-7.

Q: With “RNA1{[moe](T)[sp].[moe](G)p.[moe]([m5C])p.[moe]([m5C])p.[moe](A)p.[moe](T)p.d(T)[sp].d(T)[sp].d([m5C])[sp].d(T)[sp].d(A)[sp].d(T)[sp].d(A)[sp].d(A)[sp].d([m5C])[sp].d(T)[sp].[moe]([m5C])p.[moe](A)[sp].[moe](G)}$$$$ (last 3' nucleoside missing)” as the substance, how does the 3 h FOB score read?
A: The 3 h FOB score was 0 score 0-7.

Q: Which 3 h FOB score does the source give for “RNA1{[moe](A)[sp].[moe]([m5C])p.[moe]([m5C])p.[moe](A)p.[moe]([m5C])p.d(G)[sp].d([m5C])[sp].d(T)[sp].d(T)[sp].d(A)[sp].d([m5C])[sp].d(A)[sp].d(T)[sp].d([m5C])[sp].d(A)[sp].[moe](A)p.[moe](A)p.[moe]([m5C])[sp].[moe](A)}$$$$ (last 3' nucleoside missing)” here?
A: Its 3 h FOB score is 0.33 score 0-7.

Q: How did the 3 h FOB score turn out when “RNA1{[moe](T)[sp].[moe](G)p.[moe](T)p.[moe](A)p.d(A)[sp].d([m5C])[sp].d([m5C])[sp].d(T)[sp].d(T)[sp].d(T)[sp].d(A)[sp].d(T)[sp].d(A)[sp].d([m5C])[sp].[moe](A)p.[moe](T)p.[moe](T)p.[moe](T)[sp].[moe](A)}$$$$ (last 3' nucleoside missing)” was run?
A: The 3 h FOB score was 0 score 0-7.

Q: With “RNA1{[moe](A)[sp].[moe](G)p.[moe]([m5C])p.[moe](A)p.[moe](T)p.d(G)[sp].d(T)[sp].d(T)[sp].d(T)[sp].d(A)[sp].d(T)[sp].d([m5C])[sp].d(T)[sp].d(T)[sp].d(A)[sp].[moe](G)p.[moe](T)p.[moe](T)[sp].[moe]([m5C])}$$$$ (last 3' nucleoside missing)” as the substance, how does the 3 h FOB score read?
A: The 3 h FOB score was 0 score 0-7.

Q: “RNA1{[moe](A)[sp].[moe]([m5C])p.[moe]([m5C])p.[moe](A)p.[moe]([m5C])p.[moe](G)p.d([m5C])[sp].d(T)[sp].d(T)[sp].d(A)[sp].d([m5C])[sp].d(A)[sp].d(T)[sp].d([m5C])[sp].d(A)[sp].d(A)[sp].[moe](A)p.[moe]([m5C])[sp].[moe](A)}$$$$ (last 3' nucleoside missing)” was tested. Which 3 h FOB score did it give?
A: Its 3 h FOB score is 0 score 0-7.

Q: How did the 3 h FOB score turn out when “RNA1{[moe]([m5C])[sp].[moe](A)p.[moe](T)p.[moe](G)p.[moe](T)p.[moe](A)p.d(A)[sp].d([m5C])[sp].d([m5C])[sp].d(T)[sp].d(T)[sp].d(T)[sp].d(A)[sp].d(T)[sp].d(A)[sp].d([m5C])[sp].[moe](A)p.[moe](T)[sp].[moe](T)}$$$$ (last 3' nucleoside missing)” was run?
A: The 3 h FOB score was 0 score 0-7.

Q: With “RNA1{[moe](T)[sp].[moe](A)p.[moe](A)p.[moe](T)p.[moe]([m5C])p.d(A)[sp].d([m5C])[sp].d(T)[sp].d(T)[sp].d(T)[sp].d([m5C])[sp].d(A)[sp].d(T)[sp].d([m5C])[sp].d([m5C])[sp].[moe](A)p.[moe]([m5C])p.[moe](G)[sp].[moe](A)}$$$$ (last 3' nucleoside missing)” as the substance, how does the 3 h FOB score read?
A: The 3 h FOB score was 0 score 0-7.

Q: For “RNA1{[moe](T)[sp].[moe](A)p.[moe](A)p.[moe](T)p.[moe]([m5C])p.[moe](A)p.d([m5C])[sp].d(T)[sp].d(T)[sp].d(T)[sp].d([m5C])[sp].d(A)[sp].d(T)[sp].d([m5C])[sp].d([m5C])[sp].d(A)[sp].[moe]([m5C])p.[moe](G)[sp].[moe](A)}$$$$ (last 3' nucleoside missing)”, which 3 h FOB score is on record?
A: Its 3 h FOB score is 0 score 0-7.
